From patent publication US12589099B2 (priority 2021, dated 2026)

Assays:
Format in all cases: in vivo, male Wistar rats
[1] = Body weight over the 35-day TBI study (overt toxicity); details: 4.5 mg/kg IN twice daily
Text: (§1) Young adult (2-3 months) male Wistar rats were subjected to a moderate traumatic brain injury (TBI) induced by controlled cortical impact (CCI). Animal models of TBI including the CCI model and functional tests have been described in detail in peer reviewed publications (Xiong et al., 2013, Nat Rev Neurosci.; Zhang et al., 2016, J Neurosurg.; Zhang et al., 2016, Neurochem Int.; Zhang et al., 2021, J Neurotrauma). Injury consisted of a single impact at 4.0 m/sec, 2.5 mm deformation to the left parietal cortex. In addition, a group of animals was left healthy/not injured to serve as a healthy control.
(§2) The animals were divided into 3 groups: • 1) TBI+Vehicle (purified water, n=10) • 2) TBI+ALPHA-1062 (4.5 mg/kg) (n=10) • 3) Healthy/not injured and not treated (Sham surgery) (n=10)
(§3) The substance used in this study was ALPHA-1062 at 4.5 mg/kg. As control treatment (vehicle) purified water was administered intranasally (IN). The ALPHA-1062 and the control treatment were initiated 2 hours after injury and continued twice daily (with a 6-hour interval) for 35 consecutive days.

[2] = tested on: NeuN and BrdU double positive granule neurons in the dentate gyrus; assay: NeuN/BrdU double label, newborn neurons in the dentate gyrus 35 days post-TBI; details: 4.5 mg/kg IN twice daily, 35 days following TBI
Text: as §1
The substance used in this study was ALPHA-1062 at 4.5 mg/kg. As control treatment (vehicle) purified water was administered intranasally (IN). The ALPHA-1062 and the control treatment were initiated 2 hours after injury and continued twice daily (with a 6-hour interval) for 35 consecutive days. […]
Histological assessment was performed including quantitative image analysis protocols; followed by statistical analysis of the data. […]
For cell counting and quantitation NeuN+ cells were examined in the ipsilateral cortex, DG, CA1, and CA3 regions of the ipsilateral hippocampus. […] The number of BrdU+ cells (red-fluorophore) and NeuN (green-fluorophore)/BrdU-colabeled cells (yellow after merge) were counted. […]

[3] = tested on: moderate traumatic brain injury (TBI) induced by controlled cortical impact (CCI); assay: Morris water maze (MWM) test after TBI
Experimental: FIG. 2: The figure illustrates functional tests that are carried out on healthy (sham surgery) no treatment, vehicle treated and ALPHA-1062 treated rats to assess sensorimotor and cognitive function after TBI. Sensimotor function tests. a) The figure depicts tests to assess the modified neurological severity score (mNSS). […] The animal is required to balance over a grid and the frequency of steps missing the grid are counted. This test assesses the functionality of the injured parietal cortex of the rat's brain. c) The adhesive removal test consists of applying adhesive tape on each forepaw of the animal and measuring the time-to-contact and the time-to-remove them. This behavior requires correct paw and mouth sensitivity (time-to-contact) and correct dexterity (time-to-remove). Cognitive function tests: a) This picture illustrates the Morris water maze that comprises that a rat is placed in a large circular pool (picture on the left) and is required to find an invisible platform that allows it to escape the water by using various visuo-spatial cues. This test is used to study spatial learning and memory and assesses hippocampal and select cortical brain region function. Usually, the path of the rat through the pool is tracked (picture on the right) and the time spend in the proximity of the platform as well as the time needed until the platform is found by the rat are measured. b) For the new/novel object recognition (NOR) test, after a habituation time in the test space (picture on far left) rats are given the opportunity to explore two identical objects (A) for a predetermined period of time (picture in the middle). After a delay, the animals are then presented with two objects to explore, one of which is the same as in the first exploration trial (A), the other a new object (B) (picture on the right). Depending on the length of the delay between the two trials or depending on the extend of cortical damage, the rats will either explore the novel object for a greater time period, indicating memory for the familiar object, or will explore the novel and familiar objects for the same amount of time, indicating a lack of recall or loss of memory for the familiar object presented during the initial trial.
as §1, §2, §3
During the in vivo part of the study cognitive functional tests were performed by conducting Morris water maze (MWM) tests and novel object recognition tests on all animals at 5 weeks after TBI, with the MWM test being performed on days 31-35 following TBI (see Table 1).
The Morris water maze (MWM) is a test used in behavioral neuroscience to study spatial learning and memory, for example in rats. It enables spatial learning and memory to be studied, and can also be used to assess damage to hippocampus and select cortical regions of the brain. […]

[4] = tested on: moderate traumatic brain injury (TBI) induced by controlled cortical impact (CCI); assay: Lesion volume and hippocampal structure (H&E) 35 days post-TBI; details: 4.5 mg/kg IN twice daily, 35 days after TBI
Text: as §1, §3
Histological assessment was performed including quantitative image analysis protocols; followed by statistical analysis of the data. Histology: All rats were sacrificed after the last Morris water maze (MWM) test 35 days after TBI for the following histological analyses: lesion volume (H&E), neuronal cell loss in injured cortex and hippocampus (NeuN), doublecortin (DCX, neuroblasts), NeuN/BrdU (newborn neurons), pathological p-Tau (AT8) and total Tau IHC. […]

[5] = 4.5 mg/kg IN twice daily, days 33 to 35

SMILES: COc1ccc2c3c1O[C@H]1C[C@@H](OC(=O)c4ccccc4)C=C[C@@]31CCN(C)C2 [ALPHA-1062, (4aS,6R,8aS)-5,6,9,10,11,12-hexahydro-3-methoxy-11-methyl-4aH-[1]benzofuro[3a,3,2-ef][2]benzazepin-6-ol benzoate]
- overt toxicity ([1]; 35 days, compared to vehicle animals): did not show overt toxicity
- body weight compared to vehicle treated or untreated animals ([1]; each time point D0-D35, P>0.05): no significant alterations in body weight
- body weight compared to day zero (D0), days 29-35 ([1]; within group): significant body weight gain
- body weight compared to day zero (D0), days 1-7 ([1]; within group, p<0.05): significant body weight loss
- NeuN and BrdU double positive granule neurons compared to both vehicle-treated and sham surgery animals [2]: significantly higher (p<0.05) numbers
- MWM % time in the correct quadrant, compared to uninjured (sham surgery) animals [3, 5]: equivalent amount of time
- MWM % time in the correct quadrant, compared to vehicle [3, 5]: statistically significantly better
- MWM latency to find the hidden escape platform, compared to uninjured (sham) animals [3, 5]: as well as the uninjured (sham) animals
- MWM latency to find the hidden escape platform, compared to vehicle [3, 5]: statistically significantly better
- Morris Water Maze (MWM), performance over SHAM ([3]; rats after TBI, ALPHA-1062 treatment compared to healthy sham animals): equivalent to
- Morris Water Maze (MWM), performance over VEHICLE ([3]; rats after TBI, ALPHA-1062 treatment compared to vehicle treatment): superior
- hippocampal structure on the injured side of the brain [4]: preservation of hippocampal structure
- lesion volume ([4]; vs vehicle): significant (p<0.05) reduction of lesion volume
